Measured values reported in patent US8501911B2, “Methods of reducing inflammation and mucus hypersecretion” (Biomarck Pharmaceuticals, Ltd, priority 1999, dated 2013).
“Also recorded” adds a separate entry of the source. Residues, ends and D or L forms follow the SMILES beside them. *: point of attachment. Myristoyl = CCCCCCCCCCCCCC(=O)*

Tests used:
MARCKS = MARCKS phosphorylation in NHBE cells (radiolabeled immunoprecipitation assay); type: cell-based, human
Protocol: NHBE cells were labeled with [^32 P]orthophosphate and then exposed to the reagents: (a) Rp-8-Br-PET-cGMP (100 μM); (b) okadaic acid (500 nM); (c) 8-Br-cGMP (1 μM); and (d) PMA (100 nM). MARCKS phosphorylation in response to the treatments was evaluated by immunoprecipitation assay.
To reveal molecular events by which MARCKS links kinase activation to mucin secretion, phosphorylation of MARCKS in response to PKC/PKG activation was investigated in depth, and results are presented as Results-I-4A. […] Once phosphorylated, MARCKS was translocated from the plasma membrane to the cytoplasm. More specifically, the activation of PKC results in MARCKS phosphorylation in NHBE cells. Cells were labeled with [^32 P]orthophosphate for 2 h and then exposed to the stimulatory and/or inhibitory reagents (see below). MARCKS phosphorylation in response to the treatments was evaluated by immunoprecipitation with the following specifics, designated Results-I-4A:
[^32P]phosphate, cells were preincubated for 2 h in phosphate-free Dulbecco's modified Eagle's medium containing 0.2% bovine serum albumin and then labeled with 0.1 mCi/ml [^32 P]orthophosphate (9000 Ci/mmol, PerkinElmer Life Sciences) for 2 h. For labeling with [^3H]myristic acid or ^3H-amino acids, cells were incubated overnight in medium containing 50 μCi/ml [^3H]myristic acid (49 Ci/mmol, PerkinElmer Life Sciences) or 0.2 mCi/ml [^3H]leucine (159 Ci/mmol, PerkinElmer Life Sciences) plus 0.4 mCi/ml [^3H]proline (100 Ci/mmol, PerkinElmer Life Sciences). Following labeling, cells were exposed to stimulatory reagents for 5 min. When an inhibitor was used, cells were preincubated with the inhibitor for 15 min prior to stimulation. At the end of the treatments, cells were lysed in a buffer containing 50 mM Tris-HCl (pH 7.5), 150 mM NaCl, 1 mM EDTA, 10% glycerol, 1% Nonidet P-40, 1 mM phenylmethylsulfonyl fluoride, 1 mM benzamidine, 10 μg/ml pepstatin A, and 10 μg/ml leupeptin. Trichloroacetic acid precipitation and scintillation counting may determine the radiolabeling efficiency in each culture. Immunoprecipitation of MARCKS protein was carried out according to the method of Spizz and Blackshear using cell lysates containing equal counts/min. Spizz et al., J. Biol. Chem. 271, 553-562 (1996). Precipitated proteins were resolved by 8% SDS-polyacrylamide gel electrophoresis and visualized by autoradiography. Anti-human MARCKS antibody (2F12) and nonimmune control antibody (6F6) were used in this assay.
Phosphorylation of MARCKS by PMA was attenuated by Calphostin C (500 nM). NHBE cells also contained substantial amounts of cGMP-dependent protein kinase type 1α (PKG-1α) activity, which was localized to the cytosolic fraction. […] In addition, the phosphorylation of MARCKS induced by PMA was reversed by incubation with 8-Br-cGMP (10 μM).

human neutrophils = test: Inhibition of release of myeloperoxidase (MPO) from PMA-stimulated human neutrophils; type: cell-based; conditions: at 100 μM of test peptide; 100 nM PMA
Excerpt: Human neutrophil isolation: Human neutrophils were isolated according to a slightly modified method previously described by Akasaki T, Koga H, and Sumimoto H., Phosphoinositide 3-kinase-dependent and -independent activation of the small GTPase Rac2 in human neutrophils, J. Biol. Chem. 274:18055-18059, 1999. Alternatively, human neutrophils were isolated as previously described (see Takashi S, OkuboY, Horie S. Contribution of CD54 to human eosinophil and neutrophil superoxide production. J. Appl. Physiol. 91:613-622, 2001) with slight modifications. Briefly, heparinized venous blood was obtained from normal healthy human volunteers, diluted with RPMI-1640 (Cellgro; Mediatech, Inc., Herndon, Va.) at a ratio of 1:1, layered onto a Histopaque (density, 1.077 g/ml; Sigma-Aldrich Co., St. Louis, Mo.), and centrifuged at 400 g for 20 min at 4° C. The supernatant and mononuclear cells at the interface were carefully removed, and erythrocytes in the sediment were lysed in chilled distilled water. Isolated granulocytes were washed twice with Hanks' balanced salts solution (HBSS) and resuspended in HBSS on ice. The neutrophils used for the experiments were of >98% purity with <2% contamination by eosinophils, and the viability was >99% as determined by Trypan blue dye exclusion.
Measurement of released MPO activity: Purified human neutrophils suspended in HBSS were aliquoted at 4×10^6 cells/ml in 15 ml tubes and preincubated with either 50 or 100 μM of test peptide (dissolved in PBS, pH 7.0) for 10 min at 37° C. […] Secretions were quantified by using as a standard, human MPO.
MPO activity in the cell supernatant was assayed using tetramethylbenzidine (TMB) based on a previously established technique (Paige L, Mahmudi-Azer S, Bablitz B, Hage S C, Velazquez J R, Man S F P, and Moqbel R. Rapid Mobilization of intracellularly stored RANTES in response to Interferon-γ in human eosinophils. Blood, 94:23-32, 1999). […] The reaction was terminated by addition of 50 μl of 1M H2SO4 and absorbance was read at 450 nm in a spectrophotometric microplate reader (Molecular Devices, Sunnyvale, Calif.).

[1] = inhibitor 500 nM + 100 nM PMA + 1 μM 8-Br-cGMP

Question: How did the “Effect on PMA-induced phosphorylation of MARCKS” value (MARCKS; 8-Br-cGMP 10 μM (Example 6)) turn out when Nc1nc2c(nc(Br)n2[C@@H]2O[C@@H]3COP(=O)(O)O[C@H]3[C@H]2O)c(=O)[nH]1 [8-Br-cGMP] was run?
Answer: reversed

Question: And the “MARCKS phosphorylation (band in immunoprecipitation assay)” value (MARCKS; reagent 1 μM alone)?
Answer: faint band; also recorded: no band; also recorded: only a trace amount

Question: CCCCCCCCCCCCCC(=O)NCC(=O)N[C@@H](C)C(=O)N[C@@H](CCC(N)=O)C(=O)N[C@@H](Cc1ccccc1)C(=O)N[C@@H](CO)C(=O)N[C@@H](CCCCN)C(=O)N[C@H](C(=O)N[C@@H](C)C(=O)N[C@@H](C)C(=O)N[C@@H](CCCCN)C(=O)NCC(=O)N[C@@H](CCC(=O)O)C(=O)N[C@@H](C)C(=O)N[C@@H](C)C(=O)N[C@@H](C)C(=O)N[C@@H](CCC(=O)O)C(=O)N[C@@H](CCCNC(=N)N)C(=O)N1CCC[C@H]1C(=O)NCC(=O)N[C@@H](CCC(=O)O)C(=O)N[C@@H](C)C(=O)N[C@@H](C)C(=O)N[C@H](C(=O)N[C@@H](C)C(=O)O)C(C)C)[C@@H](C)O [MANS peptide] (Myristoyl-GAQFSKTAAKGEAAAERPGEAAVA-OH; C-terminus assumed) was tested. Which “% Inhibition MPO” value (human neutrophils) did it give?
Answer: 31.2%

Question: How did the “Increase in MARCKS phosphorylation” value (MARCKS; PMA 100 nM) turn out when CCCCCCCCCCCCCC(=O)O[C@@H]1[C@@H](C)[C@@]2(O)[C@@H](C=C(CO)C[C@]3(O)C(=O)C(C)=C[C@@H]23)[C@@H]2C(C)(C)[C@]12OC(C)=O [PMA, phorbol 12-myristate 13-acetate] was run?
Answer: 3-4 fold

Question: What about the “MARCKS phosphorylation (band in immunoprecipitation assay)” value (MARCKS; reagent 100 nM alone) of the same compound?
Answer: dark band; also recorded: very dark band; also recorded: showed a band; also recorded: strong band; also recorded: phosphorylated

Question: How did the “% Inhibition MPO” value (human neutrophils) turn out when CCCCCCCCCCCCCC(=O)NCC(=O)N[C@H](C(=O)N[C@@H](C)C(=O)N1CCC[C@H]1C(=O)N[C@@H](C)C(=O)N[C@@H](C)C(=O)N[C@@H](CCC(=O)O)C(=O)NCC(=O)N[C@@H](C)C(=O)NCC(=O)N[C@@H](C)C(=O)N[C@@H](CCC(=O)O)C(=O)N[C@H](C(=O)N[C@@H](CCCCN)C(=O)N[C@@H](CCCNC(=N)N)C(=O)N[C@@H](C)C(=O)N[C@@H](CO)C(=O)N[C@@H](C)C(=O)N[C@@H](CCC(=O)O)C(=O)N[C@@H](C)C(=O)N[C@@H](CCCCN)C(=O)N[C@@H](CCC(N)=O)C(=O)N[C@@H](C)C(=O)N[C@@H](Cc1ccccc1)C(=O)O)C(C)C)[C@@H](C)O [RNS peptide, reference compound] (Myristoyl-GTAPAAEGAGAEVKRASAEAKQAF-OH; C-terminus assumed) was run?
Answer: 0%

Question: For CCCCCCCCCCCCCC(=O)NCC(=O)N[C@@H](C)C(=O)N[C@@H](CCC(N)=O)C(=O)N[C@@H](Cc1ccccc1)C(=O)N[C@@H](CO)C(=O)N[C@@H](CCCCN)C(=O)N[C@H](C(=O)N[C@@H](C)C(=O)N[C@@H](C)C(=O)N[C@@H](CCCCN)C(=O)NCC(=O)N[C@@H](CCC(=O)O)C(=O)O)[C@@H](C)O [SEQ ID NO: 13, N-myristoyl-GAQFSKTAAKGE] (Myristoyl-GAQFSKTAAKGE-OH; C-terminus assumed), which “% Inhibition MPO” value (human neutrophils) is on record?
Answer: 43.2%

Question: For C[C@@](O)(/C=C/[C@H]1CC=CC(=O)O1)[C@@H](C[C@@H](O)\C=C/C=C\C=C\CO)OP(=O)(O)O [fostriecin], which “Effect on PKG-induced MARCKS dephosphorylation” value (MARCKS; 1-500 nM, with PMA 100 nM + 8-Br-cGMP 1 μM) is on record?
Answer: inhibited PKG-induced MARCKS dephosphorylation in a concentration-dependent manner

Question: What about the “MARCKS phosphorylation (band in immunoprecipitation assay)” value (MARCKS; [1]) of the same compound?
Answer: strong band

Question: And the “MARCKS phosphorylation (band in immunoprecipitation assay)” value (MARCKS; inhibitor alone, concentration not stated (I-5C lane 9))?
Answer: only a trace amount

Question: Which results are given for C=C1[C@@H](O)[C@@H]2O[C@]3(CC[C@H](/C=C/[C@@H](C)[C@@H]4CC(C)=C[C@@]5(O[C@H](C[C@@](C)(O)C(=O)O)CC[C@H]5O)O4)O3)CC[C@H]2O[C@@H]1[C@@H](O)C[C@H](C)[C@H]1O[C@@]2(CCCCO2)CC[C@H]1C [okadaic acid]?
Answer: Effect on reversal of MARCKS phosphorylation by 8-Br-cGMP (10 μM) (MARCKS; 500 nM (Example 6)): inhibited this effect; MARCKS phosphorylation (band in immunoprecipitation assay) (MARCKS; inhibitor 500 nM + 100 nM PMA): dark band; MARCKS phosphorylation (band in immunoprecipitation assay) (MARCKS; [1]): dark band; MARCKS phosphorylation (band in immunoprecipitation assay) (MARCKS; inhibitor 500 nM + 100 nM PMA + 1 μM 8-Br-cGMP, listed as Okadaic acid): showed a band; MARCKS phosphorylation (band in immunoprecipitation assay) (MARCKS; inhibitor 500 nM + 100 nM PMA, listed as Okadaic acid): showed a band; MARCKS phosphorylation (band in immunoprecipitation assay) (MARCKS; inhibitor 500 nM + 1 μM 8-Br-cGMP): medium dark band; MARCKS phosphorylation (band in immunoprecipitation assay) (MARCKS; inhibitor 500 nM + 1 μM 8-Br-cGMP, listed as Okadaic acid): faint band; MARCKS phosphorylation (band in immunoprecipitation assay) (MARCKS; inhibitor 500 nM alone): faint band
